According to article PMC10313921, “A living ex vivo platform for functional, personalized brain cancer diagnosis” (Cell Reports Medicine, 2023):
pEC50, pIC50: −log10 of the molar value.

What was measured:
[1] = system: U373KO (RAD18 knockout of U373WT via CRISPR); assay: Drug screening of U373KO tumor foci on OBSCs; format: cell-based, human; settings: U373 KO on OBSCs
Summary of the method: (§1)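 Tumor foci (25,000 cells) were seeded onto organotypic brain slice cultures 2 h after slicing, two per slice; one day later six drug concentrations were added to the medium or X-ray was applied. Bioluminescence was read 3 days after treatment, normalized to day-one fluorescence and to untreated controls.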

[2] = system: MS21 (low-passage patient-derived GBM line); assay: Drug screening of MS21 tumor foci on OBSCs; format: cell-based, human
Summary of the method: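 Bioluminescence viability readout, 3 d post-treatment, normalized to day-1 tumor fluorescence vs untreated; 6 drug concentrations or XRad, n = 4 foci per concentration. Drug sensitivity score sums weighted parameters comparing tumor kill with OBSC toxicity, ranging −100 to 100.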

[3] = system: U373WT (wild-type established GBM line); assay: Drug screening of U373WT tumor foci on OBSCs; format: cell-based, human; settings: U373 WT on OBSCs
Summary of the method: as §1

[4] = system: MB231Br (breast cancer metastasis to brain); assay: Drug screening of MB231Br tumor foci on OBSCs; format: cell-based, human
[5] = system: PIS patient tumor tissue (intracranial sarcoma); assay: Drug screening of uncultured patient tumor tissue PIS on OBSCs; format: cell-based, human; settings: Homo sapiens, PIS on OBSCs
Summary of the method: (§2)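 Uncultured patient tumour tissue, transduced with mCherry-FLuc lentivirus, engrafted on organotypic brain slice cultures (OBSCs); six drug concentrations or X-ray dosing given one day after seeding, n = 4 foci per concentration. Bioluminescence with luciferin read three days post-treatment, normalised to day one and untreated controls; drug sensitivity score combines weighted therapeutic-window parameters versus OBSC toxicity (−100 to 100).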

[6] = system: GBM8 (high-passage patient-derived GBM line); assay: Drug screening of GBM8 tumor foci on OBSCs; format: cell-based, human
Summary of the method: as §1

[7] = system: PGBM-R patient tumor tissue (recurrent tumor from same patient as PGBM); assay: Drug screening of uncultured patient tumor tissue PGBM-R on OBSCs; format: cell-based, human
Description: (§3) Tumor cells were seeded onto OBSCs 2h after slicing as described above. One day after tumor seeding, six concentrations of each drug were diluted in the media underneath each culture insert, or XRad was applied using an X-Rad 320 Precision X-ray machine (n = 4 tumor foci per concentration; n ≥ 24 tumor foci per drug per cell line). Three days after treatment, the bioluminescence of live tumor cells was measured using an AMI optical imager (Spectral Instruments) and dose-response curves were generated. Tumor survival was normalized to day one tumor fluorescence and compared to an untreated control group.
To engraft onto OBSCs, the cryopreserved/thawed or fresh brain tumor tissue was filtered through a 100 μm cell strainer. Each 50 mg of tissue was transfected with 1mL mcherry-FLuc Lentivirus at 1.5e7 vg/ml with 1μL polybrene for 4h at 37°C. After incubation, the brain tumor tissue was washed with PBS three times to remove the residual virus and reconstituted in PBS with a final volume of 150 μL. Then the tissue solution was engrafted atop OBSCs at ∼0.5 mg tissue in 3 μL of PBS on each hemisphere of the slice. The OBSC engrafted with patient tumor tissue was incubated at 37°C with 5% CO2 and 95% humidity. The BSM was changed after 24h and subsequently every 3 days. Tumor treatment studies were executed as described above for tumor lines. The viability of the patient tissue was measured by an AMI optical imaging system with the addition of 1.5 mg/mL luciferin underneath the culture insert.
Several weighted parameters were factored into an overall drug sensitivity score.
(§4) For DSS parameters 1–6, therapeutic windows were calculated by comparing OBSC toxicity and tumor response at the doses where tumor kill passed through the DSS parameter (Table S1 and S3). For DSS parameter 7, the therapeutic window was calculated by comparing the slopes through the tumor EC50 and the OBSC tox EC50. For DSS parameter 8, the therapeutic window was calculated by comparing the areas under tumor kill and OBSC tox curves. Normalized therapeutic window ratios for DSS parameters 1–8 within each drug-tumor-OBSC interaction were calculated in the following manner: within each window, values ranged from +1 to −1, where values approaching +1 signify increasing tumor kill relative to normal tissue toxicity, and values approaching −1 indicate agents where tumors remained highly viable while toxicity to the normal OBSC tissue was elevated. DSS parameters 9–11 were determined based on the behavior of the tumor in response to the drug, as defined above.
All individually weighed parameters were added together to generate the DSS. Overall DSS from 0 to 100 signify increasing efficacy in tumor kill relative to OBSC toxicity, while scores from 0 to −100 describe scenarios in which tumors thrive more effectively than OBSCs for a given treatment. Dose-response values were calculated via linear interpolation of raw data, not from best-fit curve equations.

[8] = system: LN229 (established GBM line); assay: Drug screening of LN229 tumor foci on OBSCs; format: cell-based, human
Summary of the method: as §1

[9] = system: MG-II patient tumor tissue (WHO grade II meningioma); assay: Drug screening of uncultured patient tumor tissue MG-II on OBSCs; format: cell-based; settings: Homo sapiens, dose required to kill 90% of the tumor
Summary of the method: as §2

[10] = system: MMG-II patient tumor tissue (WHO grade II meningioma, multiple tumors); assay: Drug screening of uncultured patient tumor tissue MMG-II on OBSCs; format: cell-based; settings: Homo sapiens, dose required to kill 90% of the tumor
Description: as §3
To engraft onto OBSCs, the cryopreserved/thawed or fresh brain tumor tissue was filtered through a 100 μm cell strainer. Each 50 mg of tissue was transfected with 1mL mcherry-FLuc Lentivirus at 1.5e7 vg/ml with 1μL polybrene for 4h at 37°C. After incubation, the brain tumor tissue was washed with PBS three times to remove the residual virus and reconstituted in PBS with a final volume of 150 μL. […] The viability of the patient tissue was measured by an AMI optical imaging system with the addition of 1.5 mg/mL luciferin underneath the culture insert. […]
as §4, with “DSS parameters 9–11 were determined based on the behavior of the tumor in response to the drug, as defined above.” left out

[11] = system: PDIPG (low-passage pediatric patient-derived line); assay: Drug screening of PDIPG tumor foci on OBSCs; format: cell-based, human
Summary of the method: as §1

[12] = Homo sapiens, U373 MG, dose required to kill 50% of the tumor
[13] = Homo sapiens, U373 MG, dose required to kill 90% of the tumor
[14] = Homo sapiens, U373 MG, dosed day 1, survival via bioluminescence day 4, linear interpolation
[15] = area under the dose-response curve, trapezoidal rule
[16] = dose required to kill 10% of the tumor
[17] = dose required to kill 25% of the tumor

Q: With `CC(=O)Nc1cccc(-n2c(=O)n(C3CC3)c(=O)c3c(Nc4ccc(I)cc4F)n(C)c(=O)c(C)c32)c1` [Trametinib] as the molecule, how does the pEC50 [1, 12] read?
A: Its pEC50 is under 5.00.

Q: And the EC90 [1, 13]?
A: The EC90 was over 10 µM.

Q: What about the pIC50 [1, 14] of the same molecule?
A: Its pIC50 is under 5.00.

Q: And the “Killing at highest dose” value [1]?
A: Its value is 3.10E-01 fraction of tumor population killed.

Q: What about the AUC [1, 15] of the same molecule?
A: The AUC was 8.91E+01.

Q: And the EC10 [1, 16]?
A: Its EC10 is 45.8 µM.

Q: And the EC25 [1, 17]?
A: The EC25 was 84.5 µM.

Q: And the Slope ([1]; slope through the EC50)?
A: The Slope was -3.88E-03.

Q: What about the pEC50 ([2]; Homo sapiens) of the same molecule?
A: The pEC50 was under 5.00.

Q: And the EC90 ([2]; Homo sapiens)?
A: The EC90 was over 10 µM.

Q: And the pIC50 ([2]; Homo sapiens)?
A: Its pIC50 is under 5.00.

Q: What about the “Killing at highest dose” value ([2]; MS21 on OBSCs) of the same molecule?
A: Its value is -5.00E-02 fraction of tumor population killed.

Q: And the AUC ([2]; MS21 on OBSCs, area under the dose-response curve, trapezoidal rule)?
A: The AUC was 1.26E+02.

Q: What about the pEC50 [3, 12] of the same molecule?
A: Its pEC50 is under 5.00.

Q: And the EC90 [3, 13]?
A: The EC90 was over 10 µM.

Q: What about the pIC50 [3, 14] of the same molecule?
A: The pIC50 was under 5.00.

Q: What about the “Killing at highest dose” value [3] of the same molecule?
A: The value was 4.80E-01 fraction of tumor population killed.

Q: What about the AUC [3, 15] of the same molecule?
A: The AUC was 5.40E+01.

Q: And the EC10 [3, 16]?
A: Its EC10 is 0.625 µM.

Q: And the EC25 [3, 17]?
A: The EC25 was 2.16 µM.

Q: And the Slope ([3]; slope through the EC50)?
A: The Slope was -2.50E-04.

Q: And the pEC50 ([4]; Homo sapiens, MB231BR on OBSCs, dose required to kill 50% of the tumor)?
A: The pEC50 was 6.11.

Q: And the EC90 ([4]; Homo sapiens, MB231BR on OBSCs, dose required to kill 90% of the tumor)?
A: Its EC90 is over 10 µM.

Q: And the pIC50 ([4]; Homo sapiens, MB231Br on OBSCs, dosed day 1, survival via bioluminescence day 4, linear interpolation)?
A: The pIC50 was 6.11.

Q: What about the “Killing at highest dose” value ([4]; MB231BR on OBSCs) of the same molecule?
A: The value was 7.00E-01 fraction of tumor population killed.

Q: What about the AUC ([4]; MB231BR on OBSCs, area under the dose-response curve, trapezoidal rule) of the same molecule?
A: The AUC was 3.32E+01.

Q: What about the Slope ([4]; MB231BR on OBSCs, slope through the EC50) of the same molecule?
A: Its Slope is -2.78E-01.

Q: And the pEC50 ([5]; dose required to kill 50% of the tumor)?
A: The pEC50 was under 4.00.

Q: And the EC90 ([5]; dose required to kill 90% of the tumor)?
A: The EC90 was over 10 µM.

Q: What about the “Killing at highest dose” value ([6]; GBM8 on OBSCs) of the same molecule?
A: The value was 9.80E-01 fraction of tumor population killed.

Q: What about the AUC ([6]; GBM8 on OBSCs, area under the dose-response curve, trapezoidal rule) of the same molecule?
A: Its AUC is 4.78E+00.

Q: What about the EC10 ([6]; GBM8 on OBSCs, dose required to kill 10% of the tumor) of the same molecule?
A: The EC10 was 0.0313 µM.

Q: What about the EC25 ([6]; GBM8 on OBSCs, dose required to kill 25% of the tumor) of the same molecule?
A: Its EC25 is 0.0781 µM.

Q: What about the EC75 ([6]; GBM8 on OBSCs, dose required to kill 75% of the tumor) of the same molecule?
A: The EC75 was 0.779 µM.

Q: And the Slope ([6]; GBM8 on OBSCs, slope through the EC50)?
A: Its Slope is -6.33E-01.

Q: What about the pEC50 ([6]; Homo sapiens) of the same molecule?
A: The pEC50 was 6.42.

Q: What about the EC90 ([6]; Homo sapiens) of the same molecule?
A: Its EC90 is 1.67 µM.

Q: And the pIC50 ([6]; Homo sapiens)?
A: The pIC50 was 6.42.

Q: What about the EC90 ([7]; Homo sapiens, PGBM-R on OBSCs, dose required to kill 90% of the tumor) of the same molecule?
A: The EC90 was over 10 µM.

Q: What about the “increase of DSS in the recurrent tumor” value ([7]; PGBM-R relative to PGBM) of the same molecule?
A: Its value is 58 points.

Q: And the “Killing at highest dose” value [8]?
A: The value was 5.60E-01 fraction of tumor population killed.

Q: And the pEC50 ([8]; Homo sapiens, LN-229, dose required to kill 50% of the tumor)?
A: Its pEC50 is 4.73.

Q: And the EC90 ([8]; Homo sapiens, LN-229, dose required to kill 90% of the tumor)?
A: The EC90 was over 10 µM.

Q: What about the pIC50 ([8]; Homo sapiens, LN-229, dosed day 1, survival via bioluminescence day 4, linear interpolation) of the same molecule?
A: The pIC50 was 4.72.

Q: What about the AUC [8, 15] of the same molecule?
A: The AUC was 4.96E+01.

Q: And the EC10 [8, 16]?
A: The EC10 was 0.668 µM.

Q: And the EC25 [8, 17]?
A: The EC25 was 3.46 µM.

Q: What about the Slope ([8]; slope through the EC50) of the same molecule?
A: The Slope was -1.47E-02.

Q: And the EC90 [9]?
A: The EC90 was over 10 µM.

Q: What about the EC90 [10] of the same molecule?
A: The EC90 was over 10 µM.

Q: And the pEC50 ([11]; Homo sapiens)?
A: The pEC50 was under 5.00.

Q: What about the EC90 ([11]; Homo sapiens) of the same molecule?
A: Its EC90 is over 10 µM.

Q: What about the pIC50 ([11]; Homo sapiens) of the same molecule?
A: Its pIC50 is under 5.00.

Q: What about the “Killing at highest dose” value ([11]; PDIPG on OBSCs) of the same molecule?
A: Its value is 1.70E-01 fraction of tumor population killed.

Q: What about the AUC ([11]; PDIPG on OBSCs, area under the dose-response curve, trapezoidal rule) of the same molecule?
A: The AUC was 8.73E+01.

Q: What about the EC10 ([11]; PDIPG on OBSCs, dose required to kill 10% of the tumor) of the same molecule?
A: Its EC10 is 30 µM.

Q: What about the Slope ([11]; PDIPG on OBSCs, slope through the EC50) of the same molecule?
A: The Slope was -1.00E-03.
